Data on 24 molecules can be found in patent publication US8912213B2, “Synthesis and use of dual tyrosyl-DNA phosphodiesterase I (TDP1)- topoisomerase I (TOP1) inhibitors” (Purdue Research Foundation, priority 2012, dated 2014).

One assay has as its target Tdp1 (Homo sapiens (Human), UniProt Q9NUW8). The assay is described as follows: Gel-based assay measuring the inhibition of recombinant Tdp1.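 Note: 5′-32P-labeled single-stranded DNA with 3′-phosphotyrosine incubated with 5 pM enzyme for 15 min at room temperature, inhibition seen as loss of 3′-phosphate product band by densitometry.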 The assay is classed as biochemical.
For a further assay, the target named is Human recombinant Top1 (Homo sapiens (Human), UniProt P11387). The assay is described as follows: Topoisomerase I-mediated DNA cleavage reactions.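 For all read-outs here: 3′-end radiolabeled DNA substrate (about 2 nM) incubated with recombinant Top1 and compound for 20 min at 25 °C, cleavage products resolved by denaturing PAGE and phosphoimaging.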 The format is biochemical. Conditions: for Top1 (compound-induced DNA cleavage, semiquantitative scale): series (B), relative to 1 μM camptothecin (90) or MJ-III-65 (91); for Top1 (compound-induced DNA cleavage due to Top1 inhibition): semiquantitative.

The subject of the next assay is UACC-62. Description: NCI screen cytotoxicity, melanoma UACC-62. The format is cell-based. The settings on record: Homo sapiens, 50% growth inhibition.
In another assay the test system is HOP-62. Description: NCI screen cytotoxicity, lung HOP-62. The assay is classed as cell-based. The settings on record: Homo sapiens, 50% growth inhibition.
In a further assay the test system is SN12C. Description: NCI screen cytotoxicity, renal SN12C. The format is cell-based. The settings on record: Homo sapiens, 50% growth inhibition.
The next assay relates to HCT-116. Description: NCI screen cytotoxicity, colon HCT-116. The format is cell-based. The settings on record: Homo sapiens, 50% growth inhibition.
For assay [1], the system named is all human cancer cell lines successfully tested. The assay is described as follows: NCI screen, mean graph midpoint (MGM) for growth inhibition. Conditions: for GI50: Homo sapiens, read-out: MGM (μM).
In a further assay the test system is DU-145. Description: NCI screen cytotoxicity, prostate DU-145. The settings on record: Homo sapiens, DU-145, read-out: Cytotoxicity (GI50 in μM) prostate DU-145; 50% growth inhibition. The assay is classed as cell-based.
The subject of a further assay is OVCAR-3. Description: NCI screen cytotoxicity, ovarian OVCAR-3. The settings on record: Homo sapiens, OVCAR-3, read-out: Cytotoxicity (GI50 in μM) ovarian OVCAR-3.
Another assay concerns MDA-MB-435. The assay is described as follows: NCI screen cytotoxicity, breast MDA-MB-435. The format is cell-based. Conditions: Homo sapiens, MDA-MB-435, read-out: Cytotoxicity (GI50 in μM) breast MDA-MB-435; 50% growth inhibition.
[2] abbreviates: series (A), gel-based assay, rec. human Tdp1, read-out: IC50 (μM) recombinant Tdp1.

Entries after “also recorded” stand apart in the source; their conditions may differ. Like-named read-outs stand apart in the source and are kept apart here. Bounds are passed on as bounds.

Sequence of Tdp1 (Q9NUW8 whole entry): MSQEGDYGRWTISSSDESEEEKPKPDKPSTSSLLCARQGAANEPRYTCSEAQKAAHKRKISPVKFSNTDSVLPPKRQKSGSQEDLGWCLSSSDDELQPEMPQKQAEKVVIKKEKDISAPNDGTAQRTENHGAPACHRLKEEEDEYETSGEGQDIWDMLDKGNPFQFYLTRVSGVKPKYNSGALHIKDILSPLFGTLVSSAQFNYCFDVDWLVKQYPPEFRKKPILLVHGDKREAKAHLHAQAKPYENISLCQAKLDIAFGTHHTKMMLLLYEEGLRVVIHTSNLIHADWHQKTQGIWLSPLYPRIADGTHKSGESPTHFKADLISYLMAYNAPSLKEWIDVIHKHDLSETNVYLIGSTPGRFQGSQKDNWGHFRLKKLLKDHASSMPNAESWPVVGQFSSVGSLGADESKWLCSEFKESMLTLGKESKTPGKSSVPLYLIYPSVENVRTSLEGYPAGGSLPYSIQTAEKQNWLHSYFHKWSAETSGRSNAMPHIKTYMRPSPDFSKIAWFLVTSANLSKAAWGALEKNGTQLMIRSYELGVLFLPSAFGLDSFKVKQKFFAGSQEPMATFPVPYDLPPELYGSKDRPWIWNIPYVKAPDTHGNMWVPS
Sequence of Human recombinant Top1 (P11387 whole entry): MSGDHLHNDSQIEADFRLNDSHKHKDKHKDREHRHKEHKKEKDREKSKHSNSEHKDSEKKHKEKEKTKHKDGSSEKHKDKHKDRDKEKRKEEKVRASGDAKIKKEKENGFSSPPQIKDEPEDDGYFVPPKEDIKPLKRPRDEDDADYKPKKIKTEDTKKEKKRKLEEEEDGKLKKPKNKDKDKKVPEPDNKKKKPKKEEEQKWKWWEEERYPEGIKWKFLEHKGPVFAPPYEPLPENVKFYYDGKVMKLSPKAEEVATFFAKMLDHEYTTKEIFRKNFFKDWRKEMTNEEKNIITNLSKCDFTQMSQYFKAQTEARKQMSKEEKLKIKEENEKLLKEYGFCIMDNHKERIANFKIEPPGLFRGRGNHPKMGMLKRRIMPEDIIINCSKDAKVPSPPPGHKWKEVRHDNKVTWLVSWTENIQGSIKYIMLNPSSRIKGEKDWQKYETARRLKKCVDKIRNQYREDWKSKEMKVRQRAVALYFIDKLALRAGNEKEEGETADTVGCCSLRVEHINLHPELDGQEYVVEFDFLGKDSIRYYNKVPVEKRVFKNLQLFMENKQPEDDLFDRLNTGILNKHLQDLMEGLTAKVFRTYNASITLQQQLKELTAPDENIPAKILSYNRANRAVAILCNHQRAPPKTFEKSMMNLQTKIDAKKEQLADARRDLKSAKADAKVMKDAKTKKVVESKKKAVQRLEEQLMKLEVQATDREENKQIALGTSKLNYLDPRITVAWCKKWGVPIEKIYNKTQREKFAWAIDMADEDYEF
Procedure for Human recombinant Top1: Additionally, all indenoisoquinoline sulfonates and sulfonamides were tested for Top1 cleavage complex poisoning in a Top1-mediated DNA cleavage assay.
Topoisomerase I-Mediated DNA Cleavage Reactions. Human recombinant Top1 was purified from baculovirus as previously described. DNA cleavage reactions were prepared as previously reported with the exception of the DNA substrate. […] Unincorporated [^32P]dGTP was removed using mini Quick Spin DNA columns (Roche, Indianapolis, Ind.), and the eluate containing the 3′-end-labeled DNA substrate was collected. Approximately 2 nM radiolabeled DNA substrate was incubated with recombinant Top1 in 20 μL of reaction buffer [10 mM Tris-HCl (pH 7.5), 50 mM KCl, 5 mM MgCl2, 0.1 mM EDTA, and 15 μg/mL BSA] at 25° C. for 20 min in the presence of various concentrations of compounds. The reactions were terminated by adding SDS (0.5% final concentration) followed by the addition of two volumes of loading dye (80% formamide, 10 mM sodium hydroxide, 1 mM sodium EDTA, 0.1% xylene cyanol, and 0.1% bromphenol blue). Aliquots of each reaction mixture were subjected to 20% denaturing PAGE. Gels were dried and visualized by using a phosphoimager and ImageQuant software (Molecular Dynamics).
Topoisomerase I-Mediated DNA Cleavage Reactions. Top1 reactions were performed as recently described. […] The reactions were terminated by adding SDS (0.5% final concentration) followed by the addition of two volumes of loading dye (80% formamide, 10 mM sodium hydroxide, 1 mM sodium EDTA, 0.1% xylene cyanol, and 0.1% bromphenol blue). Reactions were subjected to 20% denaturing PAGE. Gels were dried and visualized by using a Typhoon 8600 and ImageQuant software (Molecular Dynamics).
Procedure for Tdp1: Tdp1 inhibitory activity was measured by the drug's ability to inhibit the hydrolysis of the phosphodiester linkage between tyrosine and the 3′-end of the DNA substrate, and to prevent the generation of an oligonucleotide with a free 3′-phosphate (N14P). Therefore, the disappearance of the gel band for N14P indicated Tdp1 inhibition.
Gel-Based Assay Measuring the Inhibition of Recombinant Tdp1. A 5′-[^32P]-labeled single-stranded DNA oligonucleotide containing a 3′-phosphotyrosine (N14Y) was generated as described by Dexheimer et al. The DNA substrate was then incubated with 5 pM recombinant Tdp1 in the absence or presence of inhibitor for 15 min at room temperature in a buffer containing 50 mM Tris HCl, pH 7.5, 80 mM KCl, 2 mM EDTA, 1 mM DTT, 40 μg/ml BSA and 0.01% Tween-20. […] Gel images were scanned using a Typhoon 8600 (GE Healthcare) and densitometric analyses were performed using the ImageQuant software (GE Healthcare).

As to `NCCCn1c2c(c3ccccc3c1=O)C(=O)c1ccccc1-2` [Compound 1 of (B)], the IC50 on Tdp1 fell in the range of 12 to 37 µM.

In the case of `COC(=O)C(=O)Nc1ccc2c3c(n(C)c(=O)c2c1)-c1ccccc1C3=O` [Compound 9 of (B), Methyl 2-[(6-Methyl-5,11-dioxo-6,11-dihydro-5H-indeno[1,2-c]isoquinolin-3-yl)amino]-2-oxoacetate], on Tdp1, the IC50 was more than 111 µM and the “Tdp1 inhibitory activity (in words)” value was “inactive”. Further, on Human recombinant Top1, the “Top1 (compound-induced DNA cleavage, semiquantitative scale)” value stood at 0.

Take `COC(=O)CC(=O)Nc1ccc2c3c(n(C)c(=O)c2c1)-c1ccccc1C3=O` [Compound 10 of (B), Methyl 3-[(6-Methyl-5,11-dioxo-6,11-dihydro-5H-indeno[1,2-c]isoquinolin-3-yl)amino]-3-oxopropanoate]: at Tdp1, the IC50 is more than 111 µM. Further, the “Top1 (compound-induced DNA cleavage, semiquantitative scale)” value at Human recombinant Top1 was 0.

Turning to `COC(=O)CCC(=O)Nc1ccc2c3c(n(C)c(=O)c2c1)-c1ccccc1C3=O` [Compound 11 of (B), Methyl 4-[(6-Methyl-5,11-dioxo-6,11-dihydro-5H-indeno[1,2-c]isoquinolin-3-yl)amino]-4-oxobutanoate], the IC50 at Tdp1 was more than 111 µM. In addition, the “Top1 (compound-induced DNA cleavage, semiquantitative scale)” value at Human recombinant Top1 is “(+)”.

As for `COC(=O)CCCC(=O)Nc1ccc2c3c(n(C)c(=O)c2c1)-c1ccccc1C3=O` [Compound 12 of (B), Methyl 5-[(6-Methyl-5,11-dioxo-6,11-dihydro-5H-indeno[1,2-c]isoquinolin-3-yl)amino]-5-oxopentanoate], the IC50 on Tdp1 was more than 111 µM. Also, at Human recombinant Top1, the “Top1 (compound-induced DNA cleavage, semiquantitative scale)” value is on record as “+”.

In the case of `COC(=O)CCCCC(=O)Nc1ccc2c3c(n(C)c(=O)c2c1)-c1ccccc1C3=O` [Compound 13 of (B), Methyl 6-[(6-Methyl-5,11-dioxo-6,11-dihydro-5H-indeno[1,2-c]isoquinolin-3-yl)amino]-6-oxohexanoate], at Tdp1, the IC50 is more than 111 µM. Besides, the “Top1 (compound-induced DNA cleavage, semiquantitative scale)” value on Human recombinant Top1 turned out to be 0.

`Cn1c2c(c3ccc(NC(=O)CC(=O)O)cc3c1=O)C(=O)c1ccccc1-2` [Compound 15 of (B), 3-[(6-Methyl-5,11-dioxo-6,11-dihydro-5H-indeno[1,2-c]isoquinolin-3-yl)amino]-3-oxopropanoic Acid]: on Tdp1, the IC50 is more than 111 µM and the “Tdp1 inhibitory activity (in words)” value was “inactive”.

Take `COC(=O)CCC(=O)Nc1ccc2c3c(n(CCCN)c(=O)c2c1)-c1ccccc1C3=O` [Compound 24 of (B), Methyl 4-[(6-(3-Aminopropyl)-5,11-dioxo-6,11-dihydro-5H-indeno[1,2-c]isoquinolin-3-yl)amino]-4-oxobutanoate]: the IC50 on Tdp1 fell in the range of 37 to 111 µM. The “Top1 (compound-induced DNA cleavage, semiquantitative scale)” value at Human recombinant Top1 is “(+)”.

For `Cl.NCCCn1c2c(c3ccc(NC(=O)C(=O)O)cc3c1=O)C(=O)c1ccccc1-2` [Compound 32 of (B), 2-[(6-(3-Aminopropyl)-5,11-dioxo-6,11-dihydro-5H-indeno[1,2-c]isoquinolin-3-yl)amino]-2-oxoacetic Acid Hydrochloride], the IC50 at Tdp1 is more than 111 µM. In addition, at Human recombinant Top1, the “Top1 (compound-induced DNA cleavage, semiquantitative scale)” value was “+”.

With `Cl.NCCCn1c2c(c3ccc(NC(=O)CC(=O)O)cc3c1=O)C(=O)c1ccccc1-2` [Compound 33 of (B), 3-[(6-(3-Aminopropyl)-5,11-dioxo-6,11-dihydro-5H-indeno[1,2-c]isoquinolin-3-yl)amino]-3-oxopropanoic Acid Hydrochloride], the IC50 at Tdp1 is more than 111 µM. The “Top1 (compound-induced DNA cleavage, semiquantitative scale)” value on Human recombinant Top1 is recorded as “+”.

As for `Cl.NCCCn1c2c(c3ccc(NC(=O)CCC(=O)O)cc3c1=O)C(=O)c1ccccc1-2` [Compound 34 of (B), 4-[(6-(3-Aminopropyl)-5,11-dioxo-6,11-dihydro-5H-indeno[1,2-c]isoquinolin-3-yl)amino]-4-oxobutanoic Acid Hydrochloride], at Tdp1, the IC50 is more than 111 µM. Further, at Human recombinant Top1, the “Top1 (compound-induced DNA cleavage, semiquantitative scale)” value was “+”.

For `Cl.NCCCn1c2c(c3ccc(NC(=O)CCCC(=O)O)cc3c1=O)C(=O)c1ccccc1-2` [Compound 35 of (B), 5-[(6-(3-Aminopropyl)-5,11-dioxo-6,11-dihydro-5H-indeno[1,2-c]isoquinolin-3-yl)amino]-5-oxopentanoic Acid Hydrochloride], on Tdp1, the IC50 was more than 111 µM. Besides, the “Top1 (compound-induced DNA cleavage, semiquantitative scale)” value on Human recombinant Top1 was found to be 0.

Regarding `Cl.NCCCn1c2c(c3ccc(NC(=O)CCCCC(=O)O)cc3c1=O)C(=O)c1ccccc1-2` [Compound 36 of (B), 6-[(6-(3-Aminopropyl)-5,11-dioxo-6,11-dihydro-5H-indeno[1,2-c]isoquinolin-3-yl)amino]-6-oxohexanoic Acid Hydrochloride], the IC50 on Tdp1 is more than 111 µM. Also, the “Top1 (compound-induced DNA cleavage, semiquantitative scale)” value at Human recombinant Top1 is “+”.

As for `CCOC(=O)CNc1ccc2c3c(n(C)c(=O)c2c1)-c1ccccc1C3=O` [Compound 38 of (B), Ethyl 2-[(6-Methyl-5,11-dioxo-6,11-dihydro-5H-indeno[1,2-c]isoquinolin-3-yl)amino]acetate], the IC50 at Tdp1 is more than 111 µM. Further, the “Tdp1 inhibitory activity (in words)” value at Tdp1 (listed as 38) was “inactivity; also recorded: inactive”. Also, on Human recombinant Top1, the “Top1 (compound-induced DNA cleavage, semiquantitative scale)” value is given as 0.

For `Cn1c2c(c3ccc(NCC(=O)O)cc3c1=O)C(=O)c1ccccc1-2` [Compound 41 of (B), 2-[(6-Methyl-5,11-dioxo-6,11-dihydro-5H-indeno[1,2-c]isoquinolin-3-yl)-amino]acetic Acid], the IC50 at Tdp1 is more than 111 µM. Besides, the “Tdp1 inhibitory activity (in words)” value on Tdp1 (listed as 41) was “inactivity; also recorded: inactive”. Also, at Human recombinant Top1, the “Top1 (compound-induced DNA cleavage, semiquantitative scale)” value amounted to 0.

Turning to `CC(C)(C)OC(=O)NCCCn1c2c(c3ccc(NCC(=O)O)cc3c1=O)C(=O)c1ccccc1-2` [Compound 42 of (B), 2-((6-(3-((tert-Butoxycarbonyl)amino)propyl)-5,11-dioxo-6,11-dihydro-5H-indeno[1,2-c]isoquinolin-3-yl)amino)acetic Acid], at Tdp1, the IC50 was more than 111 µM and the “Tdp1 inhibitory activity (in words)” value is “inactivity”. Moreover, the “Top1 (compound-induced DNA cleavage, semiquantitative scale)” value at Human recombinant Top1 is 0.

Consider `COc1ccc2c(c1)-c1c(c3ccc([N+](=O)[O-])cc3c(=O)n1CCCBr)C2=O` [Compound 49 of (B), 6-(3-Bromopropyl)-5,6-dihydro-8-methoxy-3-nitro-5,11-dioxo-11H-indeno[1,2-c]isoquinoline], for which, at Tdp1, the IC50 is more than 111 µM and the “Tdp1 inhibitory activity (in words)” value is “very weak or inactive”. Moreover, the “Top1 (compound-induced DNA cleavage, semiquantitative scale)” value at Human recombinant Top1 is recorded as “+++”.

For `COc1ccc2c(c1)-c1c(c3ccc([N+](=O)[O-])cc3c(=O)n1CCCN=[N+]=[N-])C2=O` [Compound 50 of (B), 6-(3-Azidopropyl)-5,6-dihydro-8-methoxy-3-nitro-5,11-dioxo-11H-indeno[1,2-c]isoquinoline], at Tdp1, the IC50 is more than 111 µM and the “Tdp1 inhibitory activity (in words)” value was “very weak or inactive”. For the same molecule, on Human recombinant Top1, the “Top1 (compound-induced DNA cleavage, semiquantitative scale)” value is reported as “+”.

As to `COc1ccc2c(c1)-c1c(c3ccc([N+](=O)[O-])cc3c(=O)n1CCCN1CCOCC1)C2=O` [Compound 53 of (B), 8-Methoxy-6-(3-morpholinopropyl)-3-nitro-5H-indeno[1,2-c]isoquinoline-5,11(6H)-dione], at Tdp1, the IC50 was more than 111 µM and the “Tdp1 inhibitory activity (in words)” value is “very weak or inactive”. In addition, on Human recombinant Top1, the “Top1 (compound-induced DNA cleavage, semiquantitative scale)” value is listed as “++”.

For `COc1ccc2c(c1)C(=O)c1c-2n(CCCN)c(=O)c2cc([N+](=O)[O-])ccc12` [Compound 54 of (B)], the GI50 is less than 0.01 µM with UACC-62; less than 0.01 µM in the assay with HOP-62; less than 0.01 µM in the assay with SN12C; less than 0.01 µM in the assay with HCT-116; 0.02 µM in assay [1]. Also, in assay [1] (series (B), mean graph midpoint GI50, ± standard error where two determinations, listed as 54), the “MGM” value is 0.02 ± 0.0008 µM.

For `O=C1c2ccccc2-c2c1c1ccc([N+](=O)[O-])cc1c(=O)n2CCCO` [Compound 63 of (B)], the GI50 in the assay on UACC-62 was determined as 0.31 µM; with DU-145, 0.43 µM; in the assay on OVCAR-3, 0.87 µM; in the assay on SN12C it was 0.47 µM; in the assay with HCT-116, 0.19 µM; in assay [1], 0.89 ± 0.22 µM. For the same molecule, the GI50 in the assay on MDA-MB-435 is 1.97 µM.

Consider `Cl.NCCCCn1c2c(c3ccccc3c1=O)C(=O)c1ccccc1-2` [Compound 71 of (A)], for which the “Top1 inhibition (semiquantitative scale)” value on Human recombinant Top1 (series (A), relative to 1 μM camptothecin) is “+++ (between 75% and 95% activity)”.

As for `Cl.NCCCCCCCCCCCn1c2c(c3ccccc3c1=O)C(=O)c1ccccc1-2` [Compound 78 of (A)], the IC50 at Tdp1 (setting [2]) came to 13 µM. In addition, the “Top1 (compound-induced DNA cleavage due to Top1 inhibition)” value on Human recombinant Top1 (relative to 1 μM camptothecin) is “+ (between 20 and 50%, activity)”.

With `Cl.NCCCCCCCCCCCCn1c2c(c3ccccc3c1=O)C(=O)c1ccccc1-2` [Compound 79 of (A)], the IC50 on Tdp1 (setting [2]) is 15 µM. In addition, the “Top1 (compound-induced DNA cleavage due to Top1 inhibition)” value at Human recombinant Top1 (relative to 1 μM camptothecin) was 0/+.

One may read the IC50 as the concentration at which inhibition is half-maximal.
